# Assay results reported in US8357833B2, “Corn plants and seed enhanced for asparagine and protein” (priority 2007, dated 2013).
# Tests used:
# [1] = biological target: T1, Zea mays asparagine synthetase Zm AsnS2 (SEQ ID NO: 4, encoded by SEQ ID NO: 3) (Zea mays, UniProt B5U8J7); test: Kinetics of recombinant his-tagged, refolded maize asparagine synthetase AsnS2 (substrate titration, asparagine by HPLC); assay type: biochemical; details: Zm AsnS2; 100 mM Hepes, pH 8.0, 10 mM MgCl2; read-out: Km(NH4^+)
# T1 construct: 606 aa
# T1 sequence (B5U8J7 1-606): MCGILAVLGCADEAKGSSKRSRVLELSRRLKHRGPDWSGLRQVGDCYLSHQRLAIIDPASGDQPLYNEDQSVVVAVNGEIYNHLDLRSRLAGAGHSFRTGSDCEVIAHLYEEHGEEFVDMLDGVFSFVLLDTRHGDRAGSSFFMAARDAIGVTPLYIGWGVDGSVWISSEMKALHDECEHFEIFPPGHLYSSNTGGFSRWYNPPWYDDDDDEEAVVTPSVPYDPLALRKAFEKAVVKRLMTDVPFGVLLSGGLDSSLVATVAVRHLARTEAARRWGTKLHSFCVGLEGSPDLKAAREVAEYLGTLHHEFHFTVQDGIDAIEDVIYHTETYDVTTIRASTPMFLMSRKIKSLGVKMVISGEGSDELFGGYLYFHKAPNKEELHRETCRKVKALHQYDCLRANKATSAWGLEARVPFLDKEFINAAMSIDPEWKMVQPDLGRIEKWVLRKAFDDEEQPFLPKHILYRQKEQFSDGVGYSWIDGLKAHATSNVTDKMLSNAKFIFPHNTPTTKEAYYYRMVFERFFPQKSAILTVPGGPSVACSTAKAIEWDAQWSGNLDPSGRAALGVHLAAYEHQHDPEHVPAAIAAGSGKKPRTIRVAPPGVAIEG
# Method: (§1) The effect of expression of asparagine synthetase genes on asparagine synthetase activity was measured in transgenic events of pMON79706 and pMON92870. Frozen, ground leaf tissue was aliquoted (200-400 mg) into wells from a precooled 96 deep-well plate. Protein was extracted in Buffer A (100 mM Hepes-OH, pH 8.0, 0.1 mM EDTA, 10 mM MgCl2, 2 mM aspartate, 0.5 mM DTT, 67 mM mercaptoethanol, 20% (v/v) glycerol, 0.1 mM ATP, 1% (v/v) P9599 (Sigma Company), 25 mM KCl). A small amount of sand was added to each well. Buffer A was then added to the leaf tissue in the wells at a ratio of 4:1 (buffer:tissue). The plates were then agitated in a paint shaker for 2 min. to mix the sample and then centrifuged at 5000×g for 10 minutes. The supernatant (100-200 μL) was desalted in a 96-well macro spin plate (SNS S025L, The Nest Group Inc., Southboro, Mass.) equilibrated in buffer A. The supernatant was then either assayed immediately or frozen in liquid nitrogen and maintained at −80° C. until used. […] The mixture was then filtered to remove precipitate and asparagine was measured by HPLC. […]
# [2] = biological target: T2, Zea mays asparagine synthetase Zm AsnS1 (SEQ ID NO: 2, encoded by SEQ ID NO: 1) (Zea mays, UniProt B4FFJ0); test: Kinetics of recombinant his-tagged, refolded maize asparagine synthetase AsnS1 (substrate titration, asparagine by HPLC); assay type: biochemical; details: 100 mM Hepes, pH 8.0, 10 mM MgCl2, read-out: Km(NH4^+)
# T2 sequence (B4FFJ0 with tags, fused parts or gaps): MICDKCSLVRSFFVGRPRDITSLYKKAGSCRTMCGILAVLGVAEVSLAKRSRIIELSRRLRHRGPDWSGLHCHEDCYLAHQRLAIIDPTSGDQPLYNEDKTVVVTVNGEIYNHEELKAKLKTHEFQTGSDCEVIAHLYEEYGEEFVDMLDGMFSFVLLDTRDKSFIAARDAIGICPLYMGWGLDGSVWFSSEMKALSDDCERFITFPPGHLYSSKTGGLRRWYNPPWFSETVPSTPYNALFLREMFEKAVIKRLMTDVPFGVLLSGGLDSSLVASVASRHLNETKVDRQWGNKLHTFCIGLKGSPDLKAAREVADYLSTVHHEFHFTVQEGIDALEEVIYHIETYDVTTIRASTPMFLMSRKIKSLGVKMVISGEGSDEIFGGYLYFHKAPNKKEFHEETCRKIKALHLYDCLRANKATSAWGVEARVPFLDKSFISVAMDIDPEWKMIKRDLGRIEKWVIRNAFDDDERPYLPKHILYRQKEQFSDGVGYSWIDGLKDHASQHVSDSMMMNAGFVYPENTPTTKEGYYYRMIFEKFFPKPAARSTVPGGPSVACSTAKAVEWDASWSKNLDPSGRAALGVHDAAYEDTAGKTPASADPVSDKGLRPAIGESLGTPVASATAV
# Method: as §1
compound,measurement,setting,value
N [NH4^+],Km,[1],0.75 mM
same,Km,[2],9.9 mM
